The values that follow come from PMC3235172, “Distinct Expression Profiles and Different Functions of Odorant Binding Proteins in Nilaparvata lugens Stål” (PLoS ONE, 2011).

Assay [1] concerns the target NlugOBP2 (Nilaparvata lugens, UniProt B6E9U2). As to the kind of experiment: Competitive fluorescence binding assay (1-NPN probe) with recombinant NlugOBP2. The method, then: (§1) The excitation wavelength was 337 nm and the emission spectrum was recorded between 370 and 460 nm by a fluorescence spectrometer (Hitachi F-7000 Fluorescence Spectrophotometer, Japan) with a 1 cm light path quartz cuvette and 10 nm slits for both excitation and emission.

Assay [2] concerns the target NlugOBP3 (Nilaparvata lugens, UniProt B6E9U3). As to the kind of experiment: Competitive fluorescence binding assay (1-NPN probe) with recombinant NlugOBP3. The method, then:
as §1

Assay [3] addresses NlugOBP1 (Nilaparvata lugens, UniProt B6E9U1). As to the kind of experiment: Competitive fluorescence binding assay (1-NPN probe) with recombinant NlugOBP1. The protocol:
as §1

Setting [4] is: calculated from IC50, protein and 1-NPN at 2 µM, pH 7.4, read-out: OBP2 Ki.
Where [5] appears, read: displacement of 1-NPN, protein and 1-NPN at 2 µM, 50 mM Tris-HCl pH 7.4, read-out: OBP2 IC50.
Setting [6] is: calculated from IC50, protein and 1-NPN at 2 µM, pH 7.4, read-out: OBP3 Ki.
[7] abbreviates: displacement of 1-NPN, protein and 1-NPN at 2 µM, 50 mM Tris-HCl pH 7.4, read-out: OBP3 IC50.
Setting [8] is: calculated from IC50, protein and 1-NPN at 2 µM, pH 7.4, read-out: OBP1 Ki.
Where [9] appears, read: displacement of 1-NPN, protein and 1-NPN at 2 µM, 50 mM Tris-HCl pH 7.4, read-out: OBP1 IC50.

Like-named read-outs stand apart in the source and are kept apart here.

Chain of NlugOBP2 (B6E9U2 entry or part of it): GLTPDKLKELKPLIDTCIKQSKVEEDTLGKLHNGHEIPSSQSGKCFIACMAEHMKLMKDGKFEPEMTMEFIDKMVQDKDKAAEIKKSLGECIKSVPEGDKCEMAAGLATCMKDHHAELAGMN
Chain of NlugOBP1 (B6E9U1 entry or part of it): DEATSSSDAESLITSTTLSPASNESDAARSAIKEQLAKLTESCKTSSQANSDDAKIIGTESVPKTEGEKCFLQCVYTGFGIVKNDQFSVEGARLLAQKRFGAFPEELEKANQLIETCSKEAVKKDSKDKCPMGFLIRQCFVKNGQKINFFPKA
Chain of NlugOBP3 (B6E9U3 entry or part of it): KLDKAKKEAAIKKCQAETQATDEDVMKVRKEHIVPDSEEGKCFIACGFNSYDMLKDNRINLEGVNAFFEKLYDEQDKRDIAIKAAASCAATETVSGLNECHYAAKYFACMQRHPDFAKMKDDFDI

As to `C=CC(C)(O)CCC=C(C)C` (stereo not drawn) [Ligand 6, Linalool], in assay [1], the 50% inhibitory concentration (IC50) (usually the concentration at which inhibition is half-maximal) was greater than 50 µM and the Ki (commonly a dissociation constant, usually derived from enzyme kinetics or from competition with a known ligand) was greater than 50 µM. Besides, in assay [2], the IC50 is greater than 50 µM, the Ki is greater than 50 µM and the “binding ability with NlugOBP3 (in words)” value is “none”. Also, in assay [3], the IC50 was 40.8 µM, the Ki is 34.7 µM and the “binding ability with NlugOBP1 (in words)” value was “some affinities”.
Turning to `C=CC(C)(O)CC/C=C(\C)CCC=C(C)C` (racemic) [Ligand 3, (+/-)Nerolidol], the values for the Ki in assay [1] (setting [4]), in assay [2] (setting [6]) and in assay [3] (setting [8]) were 29.1 µM, 17.7 µM and 24.2 µM, respectively. Also, the IC50 in assay [1] (setting [5]) turned out to be 33.9 µM; in assay [2] (setting [7]) it was 24.8 µM; in assay [3] (setting [9]) it was 28.4 µM.
`CCCCCCCCCCCC(C)=O` [Ligand 15, 2-Tridecanone]: the “binding ability with NlugOBP2 (in words)” value in assay [1] is “relatively high binding abilities”. Moreover, the results for the Ki in assay [1] (setting [4]), in assay [2] (setting [6]) and in assay [3] (setting [8]) were 37.1 µM, 8.6 µM and 20.5 µM, respectively. Moreover, the half-maximal inhibitory concentration (IC50) in assay [1] (setting [5]) was determined as 43.2 µM; in assay [2] (setting [7]), 12 µM; in assay [3] (setting [9]) it was 24 µM. Besides, in assay [2], the “binding ability with NlugOBP3 (in words)” value was “relatively high binding abilities”. Also, the “binding ability with NlugOBP1 (in words)” value in assay [3] is reported as “relatively high binding abilities”.
On to `CC(=O)c1ccccc1` [Ligand 17, Acetophenone], for which the “binding ability with NlugOBP2 (in words)” value in assay [1] is “relatively high binding abilities”. The Ki in assay [1] (setting [4]) was 27.8 µM; in assay [2] (setting [6]), 23.1 µM; in assay [3] (setting [8]), 29.3 µM. Further, the IC50 in assay [1] (setting [5]) was 32.3 µM; in assay [2] (setting [7]) it was 32.4 µM; in assay [3] (setting [9]), 34.3 µM. In addition, the “binding ability with NlugOBP3 (in words)” value in assay [2] is “relatively high binding abilities”. Also, the “binding ability with NlugOBP1 (in words)” value in assay [3] was “relatively high binding abilities”.
As to `C=CC(=C)CCC=C(C)C` [Ligand 33, Myrcene], the values for the Ki in assay [1] (setting [4]), in assay [2] (read-out: Ki with NlugOBP3) and in assay [3] (setting [8]) were 29.1 µM, 7.2 µM and 16.2 µM, respectively. The results for the IC50 in assay [1] (setting [5]), in assay [2] (setting [7]) and in assay [3] (setting [9]) were 33.9 µM, 10.1 µM and 19 µM, respectively.
Regarding `CC(C)=CCC/C(C)=C/CC/C(C)=C/CO` [Ligand 5, Farnesol], the “binding ability with NlugOBP2 (in words)” value in assay [1] is “high binding ability”. Further, the inhibitory constant (Ki) in assay [1] (setting [4]) is 19.8 µM; in assay [2] (setting [6]) it was 4.9 µM; in assay [3] (setting [8]) it was 19.5 µM. The half-maximal inhibitory concentration (IC50) is 23 µM in assay [1] (setting [5]), 6.9 µM in assay [2] (setting [7]) and 22.8 µM in assay [3] (setting [9]). In addition, the “binding ability with NlugOBP3 (in words)” value in assay [2] is given as “high binding ability”. Moreover, the “binding ability with NlugOBP1 (in words)” value in assay [3] was “high binding ability”.
`CCC/C=C/C=O` [Ligand 13, (E)-2-Hexenal]: in assay [1], the IC50 is 33.5 µM, the inhibition constant (Ki) is 28.8 µM and the “binding ability with NlugOBP2 (in words)” value is “can bind”. In addition, in assay [2], the half-maximal inhibitory concentration (IC50) was determined as 42 µM, the inhibition constant Ki amounted to 30 µM and the “binding ability with NlugOBP3 (in words)” value is given as “could bind”. Also, in assay [3], the IC50 was greater than 50 µM, the inhibitory constant (Ki) was greater than 50 µM and the “binding ability with NlugOBP1 (in words)” value is “binds none”.
Regarding `CCCCCOC(C)=O` [Ligand 18, Amyl acetate], the Ki in assay [1] (setting [4]), in assay [2] (setting [6]) and in assay [3] (setting [8]) was greater than 50 µM throughout. In addition, the half-inhibitory concentration (IC50) in assay [1] (setting [5]), in assay [2] (setting [7]) and in assay [3] (setting [9]) was greater than 50 µM in each case.
With `CC1=CC[C@@H]2C[C@H]1C2(C)C` [Ligand 34, (+)-α-Pinene], the IC50 in assay [1] was greater than 50 µM; in assay [2] it was 16.1 µM; in assay [3] it was 36.4 µM. For the same molecule, the Ki in assay [1] is greater than 50 µM; in assay [2] it was 11.5 µM; in assay [3], 31.1 µM.
For `CCCCCCCCCCCCCC(C)=O` [Ligand 16, 2-Pentadecanone], the “binding ability with NlugOBP2 (in words)” value in assay [1] is reported as “relatively high binding abilities”. The results for the Ki in assay [1] (setting [4]), in assay [2] (setting [6]) and in assay [3] (setting [8]) were 17 µM, 9.6 µM and 25.3 µM, respectively. Besides, the 50% inhibitory concentration (IC50) in assay [1] (setting [5]) was found to be 19.8 µM; in assay [2] (setting [7]) it was 13.5 µM; in assay [3] (setting [9]), 29.7 µM. Moreover, in assay [2], the “binding ability with NlugOBP3 (in words)” value is on record as “relatively high binding abilities”. Moreover, the “binding ability with NlugOBP1 (in words)” value in assay [3] was “relatively high binding abilities”.
`CC12CCC(CC1)C(C)(C)O2` [Ligand 40, Cineole]: the Ki in assay [1] (setting [4]), in assay [2] (setting [6]) and in assay [3] (setting [8]) was greater than 50 µM in each case. Further, the IC50 in assay [1] (setting [5]), in assay [2] (setting [7]) and in assay [3] (setting [9]) was greater than 50 µM each time.
For `CCCCCCCCCCCCCCCCCCCC` [Ligand 28, Eicosane], the inhibition constant (Ki) in assay [1] (setting [4]), in assay [2] (setting [6]) and in assay [3] (setting [8]) was greater than 50 µM each time. The half-inhibitory concentration (IC50) in assay [1] (setting [5]), in assay [2] (setting [7]) and in assay [3] (setting [9]) was greater than 50 µM throughout.
For `C=C(C)[C@H]1CC=C(C)CC1` [Ligand 35, (R)-(+)-Limonene], the inhibition constant Ki in assay [1] (setting [4]) is greater than 50 µM; in assay [2] (setting [6]) it was 23.6 µM; in assay [3] (setting [8]), 27.6 µM. Besides, the IC50 in assay [1] (setting [5]) is greater than 50 µM; in assay [2] (setting [7]), 33.1 µM; in assay [3] (setting [9]), 32.4 µM. Further, the “binding ability with NlugOBP3 (in words)” value in assay [2] was “considerable affinities”.
In the case of `CC1CCC(C(C)C)C(O)C1` (stereo not drawn) [Ligand 10, Menthol], the half-maximal inhibitory concentration (IC50) in assay [1], in assay [2] and in assay [3] was greater than 50 µM throughout. Also, the Ki in assay [1], in assay [2] and in assay [3] was greater than 50 µM each time.
As for `C=C1CC/C=C(\C)CC[C@@H]2[C@@H]1CC2(C)C` [Ligand 36, β-Caryophyllene], in assay [1], the half-maximal inhibitory concentration (IC50) turned out to be 30.1 µM and the inhibition constant Ki is 25.9 µM. For the same molecule, in assay [2], the IC50 worked out at 37.4 µM, the Ki is 26.7 µM and the “binding ability with NlugOBP3 (in words)” value is reported as “considerable affinities”. In assay [3], the IC50 is greater than 50 µM and the Ki was greater than 50 µM.
Consider `CCCCCCCCCCCCCCCC(=O)O` [Ligand 27, Palmitic acid], for which the Ki in assay [1] (setting [4]) is greater than 50 µM; in assay [2] (setting [6]), 7.2 µM; in assay [3] (setting [8]) it was 22.1 µM. Moreover, the 50% inhibitory concentration (IC50) in assay [1] (setting [5]) was greater than 50 µM; in assay [2] (setting [7]) it was 10.1 µM; in assay [3] (setting [9]) it was 25.9 µM.
Regarding `CCCCCCCCCCCC=O` [Ligand 12, Dodecyl aldehyde], the Ki in assay [1] (setting [4]) is greater than 50 µM; in assay [2] (setting [6]), 18.9 µM; in assay [3] (setting [8]), 16.6 µM. For the same molecule, the IC50 in assay [1] (setting [5]) is greater than 50 µM; in assay [2] (setting [7]), 26.5 µM; in assay [3] (setting [9]) it was 19.5 µM.
As for `CC(=O)OCCC(C)C` [Ligand 19, Isoamyl acetate], the Ki in assay [1] (setting [4]) was greater than 50 µM; in assay [2] (setting [6]), greater than 50 µM; in assay [3] (setting [8]), 30.5 µM. Also, the IC50 in assay [1] (setting [5]) was greater than 50 µM; in assay [2] (setting [7]), greater than 50 µM; in assay [3] (setting [9]), 35.7 µM. Besides, the “binding ability with NlugOBP3 (in words)” value in assay [2] was “none”. The “binding ability with NlugOBP1 (in words)” value in assay [3] is “some affinities”.
As for `CCCCCC(C)O` (stereo not drawn) [Ligand 2, 2-Heptanol], the Ki in assay [1] (setting [4]), in assay [2] (setting [6]) and in assay [3] (setting [8]) was greater than 50 µM throughout. The concentration for half-maximal inhibition (IC50) in assay [1] (setting [5]), in assay [2] (setting [7]) and in assay [3] (setting [9]) was greater than 50 µM throughout.
Turning to `CCCCCCCCCCCCC` [Ligand 29, Tridecane], the Ki in assay [1] (setting [4]), in assay [2] (setting [6]) and in assay [3] (setting [8]) was greater than 50 µM throughout. The IC50 in assay [1] (setting [5]), in assay [2] (setting [7]) and in assay [3] (setting [9]) was greater than 50 µM each time.
